Target: T1, human ADRA2B receptor (Homo sapiens, UniProt P18089)
T1 construct: expressed in transfected cells
T1 sequence (P18089 1-450): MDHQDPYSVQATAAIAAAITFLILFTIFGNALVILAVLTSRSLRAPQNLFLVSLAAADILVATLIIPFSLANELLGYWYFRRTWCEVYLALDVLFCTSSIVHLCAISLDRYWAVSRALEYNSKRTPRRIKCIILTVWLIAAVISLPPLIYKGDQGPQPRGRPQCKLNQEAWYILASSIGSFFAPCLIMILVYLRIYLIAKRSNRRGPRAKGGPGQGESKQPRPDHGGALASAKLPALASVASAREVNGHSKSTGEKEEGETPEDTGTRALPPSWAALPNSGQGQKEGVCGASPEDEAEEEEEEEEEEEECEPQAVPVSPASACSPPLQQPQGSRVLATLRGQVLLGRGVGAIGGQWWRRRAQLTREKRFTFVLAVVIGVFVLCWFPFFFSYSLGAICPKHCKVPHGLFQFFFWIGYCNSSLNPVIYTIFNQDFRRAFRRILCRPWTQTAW
Assay: GTPγS agonist assay, ADRA2B receptor
Format: biochemical
Details: read-out: GTPase - Human Alpha2B EC50
Outline: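 CHO-K1 membranes stably expressing human ADRA2B (5 μg protein) in 20 mM HEPES, 10 mM MgCl2, 200 mM NaCl with GDP, preincubated 10 min at room temperature with compound. Binding reaction 1 h at 37° C; bound label collected on GF/C filters, washed, read by scintillation counting.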

SMILES	EC50
FC1(F)Oc2cccc(C(Cc3ccccn3)c3c[nH]cn3)c2O1 (stereo not drawn) [Compound 115, 2,2-difluoro-4-[1-(4-imidazolyl)-2-(2-pyridyl)ethyl]-2H-1,3-benzodioxole]	50 to 500 nM
Cc1cccc(C(Cc2cncs2)c2c[nH]cn2)c1C (stereo not drawn) [Compound 116, 5-[2-(4-imidazolyl)-2-(2,3-xylyl)ethyl]-1,3-thiazole]	10 to 50 nM
Cc1cccc(C(Cc2ncco2)c2c[nH]cn2)c1C (stereo not drawn) [Compound 117, 2-[2-(4-imidazolyl)-2-(2,3-xylyl)ethyl]-1,3-oxazole]	50 to 500 nM
Cc1cccc(C(Cc2cscn2)c2c[nH]cn2)c1C (stereo not drawn) [Compound 118, 4-[2-(4-imidazolyl)-2-(2,3-xylyl)ethyl]-1,3-thiazole]	10 to 50 nM
Cc1cccc([C@@H](Cc2cscn2)c2c[nH]cn2)c1C [Compound 119, 4-[(R)-2-(4-imidazolyl)-2-(2,3-xylyl)ethyl]-1,3-thiazole]	< 10 nM
Cc1cccc([C@H](Cc2cscn2)c2c[nH]cn2)c1C [Compound 120, 4-[(S)-2-(4-imidazolyl)-2-(2,3-xylyl)ethyl]-1,3-thiazole]	> 500 nM
FC1(F)Oc2cccc([C@@H](Cc3ccccn3)c3c[nH]cn3)c2O1 [Compound 121, 4-[(R)-1-(4-imidazolyl)-2-(2-pyridyl)ethyl]-2,2-difluoro-2H-1,3-benzodioxole]	50 to 500 nM
FC1(F)Oc2cccc([C@H](Cc3ccccn3)c3c[nH]cn3)c2O1 [Compound 122, 4-[(S)-1-(4-imidazolyl)-2-(2-pyridyl)ethyl]-2,2-difluoro-2H-1,3-benzodioxole]	> 500 nM
Cc1nc(C)c(C[C@@H](c2c[nH]cn2)c2cccc(C)c2C)s1 [Compound 123, 5-[(R)-2-(4-imidazolyl)-2-(2,3-xylyl)ethyl]-2,4-dimethyl-1,3-thiazole]	< 10 nM
Cc1nc(C)c(C[C@H](c2c[nH]cn2)c2cccc(C)c2C)s1 [Compound 124, 5-[(S)-2-(4-imidazolyl)-2-(2,3-xylyl)ethyl]-2,4-dimethyl-1,3-thiazole]	10 to 50 nM
COc1cccc(CC(c2c[nH]cn2)c2cccc3c2OC(F)(F)O3)n1 (stereo not drawn) [Compound 125, 2,2-difluoro-4-[1-(4-imidazolyl)-2-(6-methoxy-2-pyridyl)ethyl]-2H-1,3-benzodioxole]	10 to 50 nM
Cc1cccc(C(Cc2cocn2)c2c[nH]cn2)c1C (stereo not drawn) [Compound 126, 4-[2-(4-imidazolyl)-2-(2,3-xylyl)ethyl]-1,3-oxazole]	< 10 nM
Cc1cccc(C(Cc2ccnn2C)c2c[nH]cn2)c1C (stereo not drawn) [Compound 127, 5-[2-(4-imidazolyl)-2-(2,3-xylyl)ethyl]-1-methyl-pyrazole]	< 10 nM
Cc1cccc([C@@H](Cc2cncs2)c2c[nH]cn2)c1C [Compound 128, 5-[(R)-2-(4-imidazolyl)-2-(2,3-xylyl)ethyl]-1,3-thiazole]	50 to 500 nM
Cc1cccc([C@H](Cc2cncs2)c2c[nH]cn2)c1C [Compound 129, 5-[(S)-2-(4-imidazolyl)-2-(2,3-xylyl)ethyl]-1,3-thiazole]	< 10 nM
Cc1cccc([C@@H](Cc2ccnn2C)c2c[nH]cn2)c1C [Compound 130, 5-[(R)-2-(4-imidazolyl)-2-(2,3-xylyl)ethyl]-1-methyl-pyrazole]	< 10 nM
Cc1cccc([C@H](Cc2ccnn2C)c2c[nH]cn2)c1C [Compound 131, 5-[(S)-2-(4-imidazolyl)-2-(2,3-xylyl)ethyl]-1-methyl-pyrazole]	10 to 50 nM
Cc1csc(CC(c2c[nH]cn2)c2cccc(C)c2C)n1 (stereo not drawn) [Compound 132, 2-[2-(4-imidazolyl)-2-(2,3-xylyl)ethyl]-4-methyl-1,3-thiazole]	< 10 nM
Cc1cccc(C(Cc2cnco2)c2c[nH]cn2)c1C (stereo not drawn) [Compound 134, 5-[2-(4-imidazolyl)-2-(2,3-xylyl)ethyl]-1,3-oxazole]	< 10 nM
Cc1cc(C[C@@H](c2c[nH]cn2)c2cccc(C)c2C)no1 [Compound 135, 3-[(R)-2-(4-imidazolyl)-2-(2,3-xylyl)ethyl]-5-methyl-isoxazole]	> 500 nM
Cc1cccc([C@@H](Cc2cccnn2)c2c[nH]cn2)c1F [Compound 137, 3-[(R)-2-(2-fluoro-3-tolyl)-2-(4-imidazolyl)ethyl] pyridazine]	50 to 500 nM
Cc1cccc([C@H](Cc2cccnn2)c2c[nH]cn2)c1F [Compound 138, 3-[(S)-2-(2-fluoro-3-tolyl)-2-(4-imidazolyl)ethyl] pyridazine]	> 500 nM
FC(F)(F)c1ccccc1C(Cc1cccnn1)c1c[nH]cn1 (stereo not drawn) [Compound 166, 3-{2-(4-imidazolyl)-2-[o-(trifluoromethyl)phenyl]ethyl}pyridazine]	> 500 nM
Clc1cccc(C(Cc2cccnn2)c2c[nH]cn2)c1Cl (stereo not drawn) [Compound 170, 3-[2-(2,3-dichlorophenyl)-2-(4-imidazolyl)ethyl] pyridazine]	50 to 500 nM
Fc1ccc(C(Cc2cccnn2)c2c[nH]cn2)c(F)c1Cl (stereo not drawn) [Compound 173, 3-[2-(3-chloro-2,4-difluorophenyl)-2-(4-imidazolyl)ethyl] pyridazine]	> 500 nM

Other lines, results leading:

EC50	SMILES
10 to 50 nM	COc1ccc(CC(c2c[nH]cn2)c2cccc(C)c2C)nn1 (stereo not drawn) [Compound 133, 3-[2-(4-imidazolyl)-2-(2,3-xylyl)ethyl]-6-methoxy-pyridazine]
< 10 nM	Cc1cc(C[C@H](c2c[nH]cn2)c2cccc(C)c2C)no1 [Compound 136, 3-[(S)-2-(4-imidazolyl)-2-(2,3-xylyl)ethyl]-5-methyl-isoxazole]
50 to 500 nM	COc1c(C)cccc1C(Cc1ccnc(C)n1)c1c[nH]cn1 (stereo not drawn) [Compound 148, 4-[2-(4-imidazolyl)-2-(2-methoxy-3-tolyl)ethyl]-2-methylpyrimidine]
10 to 50 nM	COc1cccc(C(Cc2ccnc(C)n2)c2c[nH]cn2)c1C (stereo not drawn) [Compound 149, 4-[2-(4-imidazolyl)-2-(3-methoxy-2-tolyl)ethyl]-2-methylpyrimidine]
50 to 500 nM	Cc1cccc([C@H](Cc2ccnc(CF)n2)c2c[nH]cn2)c1C [Compound 152, 4-[(S)-2-(4-imidazolyl)-2-(2,3-xylyl)ethyl]-2-(fluoromethyl) pyrimidine]
50 to 500 nM	COc1nccc(CC(c2ccc(Cl)cc2)c2c[nH]cn2)n1 (stereo not drawn) [Compound 159, 4-[2-(p-chlorophenyl)-2-(4-imidazolyl)ethyl]-2-methoxypyrimidine]
> 500 nM	COc1c(Cl)cccc1C(Cc1cccnn1)c1c[nH]cn1 (stereo not drawn) [Compound 160, 3-[2-(3-chloro-2-methoxyphenyl)-2-(4-imidazolyl)ethyl] pyridazine]
< 10 nM	Cc1nccc(CC(c2c[nH]cn2)c2cccc3c2ccn3C)n1 (stereo not drawn) [Compound 164, 4-[2-(4-imidazolyl)-2 (1-methyl-4-indolyl)ethyl]-2-methylpyrimidine]
50 to 500 nM	COc1nccc(CC(c2c[nH]cn2)c2cccc(C#N)c2C)n1 (stereo not drawn) [Compound 171, 6-[1-(4-imidazolyl)-2-(2-methoxy-4-pyrimidinyl)ethyl]-2-toluonitrile]
> 500 nM	COc1nccc(CC(c2c[nH]cn2)c2cccc3cn[nH]c23)n1 (stereo not drawn) [Compound 172, 7-[1-(4-imidazolyl)-2-(2-methoxy-4-pyrimidinyl)ethyl]-1H-indazole]
50 to 500 nM	COc1nccc(CC(c2c[nH]cn2)c2cccc3ncoc23)n1 (stereo not drawn) [Compound 174, 7-[1-(4-imidazolyl)-2-(2-methoxy-4-pyrimidinyl)ethyl]-1,3-benzoxazole]
50 to 500 nM	COc1nccc(CC(c2c[nH]cn2)c2cccc(C#N)c2F)n1 (stereo not drawn) [Compound 177, 2-fluoro-3-[1-(4-imidazolyl)-2-(2-methoxy-4-pyrimidinyl)ethyl] benzonitrile]
10 to 50 nM	COc1nccc(CC(c2c[nH]cn2)c2cccc(OC)c2C)n1 (stereo not drawn) [Compound 178, 4-[2-(4-imidazolyl)-2-(3-methoxy-2-tolyl)ethyl]-2-methoxypyrimidine]
50 to 500 nM	COc1nccc(CC(c2c[nH]cn2)c2cc(Cl)ccc2C)n1 (stereo not drawn) [Compound 184, 4-[2-(5-chloro-2-tolyl)-2-(4-imidazolyl)ethyl]-2-methoxypyrimidine]
< 10 nM	COc1nccc(CC(c2c[nH]cn2)c2cccc(Cl)c2C)n1 (stereo not drawn) [Compound 185, 4-[2-(3-chloro-2-tolyl)-2-(4-imidazolyl)ethyl]-2-methoxypyrimidine]
< 10 nM	COc1nccc(CC(c2c[nH]cn2)c2cccc(C)c2Cl)n1 (stereo not drawn) [Compound 186, 4-[2-(2-chloro-3-tolyl)-2-(4-imidazolyl)ethyl]-2-methoxypyrimidine]
> 500 nM	COc1nccc(CC(c2ccc(C(F)F)cc2)c2c[nH]cn2)n1 (stereo not drawn) [Compound 188, 4-{2-[p-(difluoromethyl)phenyl]-2-(4-imidazolyl)ethyl}-2-methoxypyrimidine]
< 10 nM	COc1nccc(CC(c2c[nH]cn2)c2cccc3c2ccn3C)n1 (stereo not drawn) [Compound 193, 4-[2-(4-imidazolyl)-2-(1-methyl-4-indolyl)ethyl]-2-methoxypyrimidine]
10 to 50 nM	COc1nccc(CC(c2c[nH]cn2)c2cccc3c2cnn3C)n1 (stereo not drawn) [Compound 194, 4-[1-(4-imidazolyl)-2-(2-methoxy-4-pyrimidinyl)ethyl]-1-methyl-1H-indazole]
50 to 500 nM	COc1nccc(CC(c2c[nH]cn2)c2cccc(Cl)c2C#N)n1 (stereo not drawn) [Compound 196, 6-chloro-2-[1-(4-imidazolyl)-2-(2-methoxy-4-pyrimidinyl)ethyl] benzonitrile]

From US20260042769A1, “TRIARYL AGONISTS OF ALPHA-2 ADRENERGIC RECEPTORS” (ALCEPTOR THERAPEUTICS, INC., priority 2023, published 2026)
